{"source": "patent US8445224B2", "about": "“Method for assaying FTO (2-oxoglutarate dependent oxygenase) activity” (Isis Innovation Limited, priority 2007, dated 2013)", "biological_target": "T1, FTO (Mus musculus, UniProt Q8BGW1)", "T1 construct": "His tag (pET-28a) with peptide linker (N); made in house; host or cells: E. coli BL21-Gold(DE3)", "T1 sequence (Q8BGW1 whole entry)": "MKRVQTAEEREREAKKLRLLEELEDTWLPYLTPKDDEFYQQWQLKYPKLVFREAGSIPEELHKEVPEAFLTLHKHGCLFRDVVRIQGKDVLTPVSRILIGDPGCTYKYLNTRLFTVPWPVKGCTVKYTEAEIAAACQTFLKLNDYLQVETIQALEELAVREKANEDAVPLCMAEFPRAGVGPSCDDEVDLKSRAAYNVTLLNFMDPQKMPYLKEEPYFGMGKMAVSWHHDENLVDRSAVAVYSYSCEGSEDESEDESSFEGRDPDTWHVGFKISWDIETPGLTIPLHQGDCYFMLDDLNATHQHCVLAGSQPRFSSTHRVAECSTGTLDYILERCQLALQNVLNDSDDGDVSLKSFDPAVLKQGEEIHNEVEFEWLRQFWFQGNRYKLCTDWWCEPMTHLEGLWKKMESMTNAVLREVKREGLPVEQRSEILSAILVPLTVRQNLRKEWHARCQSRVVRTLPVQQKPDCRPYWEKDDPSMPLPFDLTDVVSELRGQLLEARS", "test": "2-oxoglutarate decarboxylation (uncoupled 2-OG turnover) assay with purified FTO", "assay_type": "biochemical", "protocol": "FTO was incubated with all necessary cofactors, in various buffers lacking a specific reagent (Fe^2+, ascorbate or DTT) and in the presence of N-oxalyl-glycine (NOG), a generic Fe^2+-2OG-dioxygenase inhibitor at a concentration of 0.5 mM. In addition to Fe^2+ (added in the form of (NH4)2Fe(II)(SO4)2) and 2OG, dithiothreitol (DTT) and sodium ascorbate were added to the reaction mixture: DTT is a reducing agent that helps to maintain Fe^2+.\nThese were diluted to a total volume of 100 μl with 50 mM TRIS, pH 7.5. All reagents were mixed and pipetted into a 5 ml plastic screw cap tube, the FTO was added to the tube as a separate drop. A 500 μl Eppendorf tube containing 200 μl Hyamine hydroxide (Fisher Scientific, CO2 trapping agent) was added to each tube and tubes were closed with a rubber septum. After incubation in an environmental shaker at 37° C. for half an hour, 200 μl methanol was added to the contents and the tubes were put on ice for 30 minutes to quench the reaction. The Eppendorf tubes containing the hyamine hydroxide were transferred to scintillation vials, mixed with 5 ml OptiPhase Liquid Scintillation Cocktail (Fisher Scientific) and total ^14C counts quantified using a Beckman L56500 Multi-Purpose Scintillation Counter."}
{"smiles": "O=C(O)C(=O)N[C@H](Cc1ccccc1)C(=O)O", "note": "[NOFD, N-oxalyl D-phenylalanine]", "values": [{"measurement": "Inhibition of FTO 2-OG turnover (uncoupled)", "setting": "no methylated DNA substrate", "value": "did not inhibit"}]}
{"smiles": "O=S(=O)([O-])[O-].[Fe+2]", "note": "[FeSO4]", "values": [{"measurement": "Stimulation of FTO 2-OG turnover activity", "setting": "uncoupled turnover", "value": "stimulated"}]}
